Entries after “also recorded” stand apart in the source; their conditions may differ.
Legend:
LLC and Raw264.7 cells = test: In vitro inhibition study of SH1 cellular uptake; assay type: cell-based; conditions: 2 μM SH1, 15 min
Method: In vitro inhibition study: LLC and Raw264.7 cells were seeded and incubated at a density of 20,000 cells/plate in a 24-well plate. […] Cells were then incubated with 2 μM of SH1 at 37° C. for 15 min. […] After washing twice with HBSS buffer, the cells were imaged using a Nikon TE2000 epifluorescence microscope (TE2000U; Nikon) equipped with a 75-W xenon light source, NIR-compatible optics, and a NIR-compatible 4×, 10×, and 20× Plan Fluor objective lens (Nikon, Melville, NY) with a customized filter set.

[1] = Optical study in EtOH, DMSO, HEPES and PBS; assay type: physicochemical
Method: (§1) Optical Study, Photostability, Physicochemical Properties, and DFT Calculation: 1 mM stock solution in DMSO of the synthesized fluorophores was prepared before starting any spectral measurement. Optical properties for the synthesized fluorophores were measured in four different solvents (EtOH, DMSO, HEPES, and PBS). Absorbance spectra were measured in a Varian Cary 50 absorbance spectrophotometer (190-1100 nm). Fluorescence emission and photostability were measured and emission spectra were recorded on a Shimadzu RF-5301PC spectrofluorometer. Physicochemical properties (Log D, molecular mass, TPSA, H bond D/A, polarizability, molecular volume, and rotatable bonds) were predicted by ChemAxon (JChem plugin). Theoretical calculations of frontier molecular orbitals (FMOs) for the optimized structures of selected fluorophores were calculated based on DFT calculations at the B3LYP/6-311G(d,p) level.
In vivo success of a contrast agent can depend on the absorption and emission profiles, molar extinction coefficient, quantum yield, molecular brightness, physicochemical properties, and photochemical stability. Different types of polymethine bridges can have an impact on the structural geometry of the fluorophores and the absorption and emission profiles. Optical properties were measured in polar protic EtOH, polar aprotic DMSO, and two buffer solutions, phosphate-buffered saline (PBS, PH ˜7.4) and 4-(2-hydroxyethyl)-1-piperazine-ethanesulfonic acid (HEPES, PH ˜7.4). Organic solvents such as ethanol (EtOH) and dimethyl sulfoxide (DMSO) are often used in spectroscopic experiments to observe the absorption and emission maximum, whereas buffer solvents PBS and HEPES were used to mimic the biological environment, as these synthesized fluorophores are intended to be used in bioimaging. The absorbance profiles of these fluorophores were recorded at various concentrations (0.8, 1.6, 2.4, 3.2, 4.0 μM) and the absorbance values obtained were plotted against each of the concentrations. […] Fluorophores 18-21 refer to the labels in Example 4 and FIG. 7D.
The molar extinction coefficient is an intrinsic property of any fluorophore and can be important for high image resolution. […] These properties vary with the structure change and are difficult to predict beforehand. The optical properties of the synthesized fluorophores were measured in various media. All measurements were performed in 2 different organic solvents (EtOH and DMSO) and 2 different buffer (HEPES and PBS), and ICG was used as a reference (ΦICG=0.043).

[2] = In vivo biodistribution study of NIR fluorophores in CD-1 mice; set-up: species or system mouse; conditions: 25 nmol intravenous, 4 h post-injection
Method: In Vivo Biodistribution Study of NIR Fluorophores: Under the supervision of the MGH IACUC, animals were housed in an AAALAC-certified facility and studied according to institutional protocol #2016N000136. In preparation for injection, CD-1 mice (25-30 g, 6 weeks, Charles River Laboratories, Wilmington, MA) were anesthetized with isoflurane and oxygen. A 10 mM stock solution of NIR fluorophores was prepared in DMSO, and 25 nmol of each molecule was diluted in BSA-containing saline (5 wt/v %) for intraoperative imaging. After 4 h post-injection, mice were imaged. For each experiment, camera exposure time and image normalization were held constant.
Quantitative Analysis: The fluorescence and background intensity of a region of interest (ROI) over each tissue was quantified using ImageJ software (NIH, Bethesda, MD) version 1.45q. The signal-to-background ratio (SBR) was calculated as SBR=fluorescence/background, where background is the signal intensity of neighboring tissues such as muscle. All NIR fluorescence images for a particular fluorophore were normalized identically for all conditions of an experiment.

[3] = Photostability under xenon lamp irradiation; assay type: physicochemical; conditions: 2 h
Method: as §1
In consideration of theranostic (therapeutics and diagnostic) applications, NIR cyanine fluorophores are synthesized for fluorescence imaging, photodynamic therapy (PDT), photothermal therapy (PTT), optoacoustic imaging, and cancer immunotherapy. One of the approaches before using these fluorophores in those applications is to study their biodistribution and clearance pattern in vivo. […] The power density of 150 W is much higher than the required power for fluorescence imaging, considering that the time it takes for a fluorophore to clear from the background and accumulate in sufficient quantities in the targeted tissues is unknown. […] By considering this, an aliquot of the stock solution (1 mM in DMSO) was diluted in ethanol, and the fluorescence intensity was measured at the excitation wavelength same as their absorption maxima (nm). Photodegradation rates were measured every 20 min intervals for the selected fluorophores based on the % reduced fluorescence intensity starting from 100%. […] The data were collected in every 20 min intervals under continuous irradiation with a xenon lamp at 150 W for 2 h and presented based on the % reduced fluorescence intensity starting from 100%. […]

[4] = system: lung carcinoma (LLC cell line); test: NIR-II fluorescence imaging of subcutaneous LLC tumor-bearing C57BL/6 mice; assay type: in vivo, mouse
Description: General NIR-II fluorescence imaging: A 640×512-pixel InGaAs camera (Ninox640, Raptor Photonics) and macro zoom lens (0-10×; Navitar Zoom 7000 with SWIR coating) along with 900, 1070, 1100, and 1200 nm long-pass (LP) filters from either Thorlab or Edmund optics were used to collect the NIR-II signal. InGaAs camera played a role as an open-air imaging system along with the support of the FLARE system. An 808 nm fiber-coupled diode laser ([…] at the sample) was used as an excitation source. Data acquisition was done using in-house developed software. […] Mice were imaged with intact skin using InGaAs camera. At least 3 mice were analyzed for each sample. Tumor-bearing mouse models: Animals were housed in an AAALAC-certified facility and were studied under the protocols approved by the MGH IACUC (2016N000136). Mice were maintained under anesthesia with isoflurane and oxygen during the experiment. To establish the various tumor-bearing mouse models including lung carcinoma, pancreatic ductal adenocarcinoma (PDAC), and triple negative breast adenocarcinoma, eight-week-old C57BL/6 mice (Taconic Farms, Germantown, NY) were subcutaneously injected with 2×10^5 LLC, Pan02, and E0771 cells suspended in DMEM/Matrigel (100 μL, 50 v/v %) in the flank region, respectively. Female C57BL/6 mice were used for the breast cancer (E0771) model, otherwise male mice were used. […] Statistical analysis: The fluorescence and background intensities of a region of interest over each tissue were quantified using customized imaging software and ImageJ v1.48 (National Institutes of Health, Bethesda, MD). The signal-to-background ratio (SBR) was calculated as SBR=fluorescence/background, where background was the fluorescence intensity of muscle. Data were reported as mean±s.e.m. with a minimum of three biological replicates. Student's t-test statistical analysis was performed to evaluate the significance of the experimental data. The differences among groups were determined using one-way ANOVA analysis to assess the statistical differences among more than two groups. […] The data was indicated with *p<0.05, ** p<0.01, *** p<0.001, and **** p<0.0001.

O=C1NC(=NS(=O)(=O)c2cccc3ccccc23)S/C1=C\c1ccc(Br)cc1 [Pitstop 2]
effect of inhibitor pretreatment on SH1 cellular uptake (LLC and Raw264.7 cells): did not result in any appreciable change in cellular uptake

CN(C)C(=O)CCSC(SCCC(=O)O)c1cccc(/C=C/c2ccc3ccc(Cl)cc3n2)c1 (stereo not drawn) [MK-571]
effect of inhibitor pretreatment on SH1 cellular uptake (LLC and Raw264.7 cells): Neither bromosulphophthalein, cyclosporin A (both OATP inhibitors), D22 (OCT inhibitor), nor MK-571 (ABC transporter inhibitor) significantly inhibited SH1 uptake

CCCCN1/C(=C/C=C2\CCCC(/C=C/C3=[N+](CCCC)c4ccc(Br)cc4C3(C)C)=C2Cl)C(C)(C)c2cc(Br)ccc21.[I-] [fluorophore 20, 5-Bromo-2-((E)-2-((E)-3-(2-((E)-5-bromo-1-butyl-3,3-dimethylindolin-2-ylidene)ethylidene)-2-chlorocyclohex-1-en-1-yl)vinyl)-1-butyl-3,3-dimethyl-3H-indol-1-ium Iodide]
quantum yield ([1]; PBS): 0.01 | tissue/organ signals [2]: high signals in the primary and secondary lymphoid tissues

CC1(C)C(/C=C/C2=C(Cl)C(=C/C=C3/N(CCCc4ccccc4)c4ccc(Cl)cc4C3(C)C)/CCC2)=[N+](CCCc2ccccc2)c2ccc(Cl)cc21.[Br-] [fluorophore 19, 5-Chloro-2-((E)-2-((E)-2-chloro-3-(2-((E)-5-chloro-3,3-dimethyl-1-(3-phenylpropyl)indolin-2-ylidene)ethylidene)cyclohex-1-en-1-yl)vinyl)-3,3-dimethyl-1-(3-phenylpropyl)-3H-indol-1-ium Bromide]
photodegradation (% reduced fluorescence intensity) [3]: 7-12% | emission wavelength ([1]; DMSO): 817 nm

CCCCN1/C(=C/C=C/C=C/C=C/C2=[N+](CCCC)c3ccc(Cl)cc3C2(C)C)C(C)(C)c2cc(Cl)ccc21 [SH2, 1-butyl-2-((1E,3E,5E)-7-((E)-1-butyl-5-chloro-3,3-dimethylindolin-2-ylidene)hepta-1,3,5-trien-1-yl)-5-chloro-3,3-dimethyl-3H-indol-1-ium iodide]
NIR-II signal intensity of abdominal and dissected tumor image ([4]; NIR-II region): low signal intensity in NIR-II region

O=C(N/N=C/c1cc(O)c(O)cc1O)c1cc2ccccc2cc1O [dingo 4a]
effect of inhibitor pretreatment on SH1 cellular uptake (LLC and Raw264.7 cells): significantly inhibited the internalization

CCN1/C(=C/c2ccc3ccccc3[n+]2CC)C=Cc2ccccc21.[I-] [D22, 1,1′-Diethyl-2,2′-cyanine iodide]
effect of inhibitor pretreatment on SH1 cellular uptake (LLC and Raw264.7 cells): Neither bromosulphophthalein, cyclosporin A (both OATP inhibitors), D22 (OCT inhibitor), nor MK-571 (ABC transporter inhibitor) significantly inhibited SH1 uptake

O=C1OC(c2ccc(O)c(S(=O)(=O)O)c2)(c2ccc(O)c(S(=O)(=O)O)c2)c2c(Br)c(Br)c(Br)c(Br)c21 [bromosulphophthalein, bromsulphthalein]
effect of inhibitor pretreatment on SH1 cellular uptake (LLC and Raw264.7 cells): Neither bromosulphophthalein, cyclosporin A (both OATP inhibitors), D22 (OCT inhibitor), nor MK-571 (ABC transporter inhibitor) significantly inhibited SH1 uptake

CCCCN1/C(=C/C=C2\CCCC(/C=C/C3=[N+](CCCC)c4ccccc4C3(C)C)=C2Cl)C(C)(C)c2ccccc21 [SH21, 1-butyl-2-((E)-2-((E)-3-(2-((E)-1-butyl-3,3-dimethylindolin-2-ylidene)ethylidene)-2-chlorocyclohex-1-en-1-yl)vinyl)-3,3-dimethyl-3H-indol-1-ium iodide]
circulation in the blood stream ([4]; 48 h post-injection): circulating in the blood stream at 48 h post injection | quantum yield ([1]; EtOH): 0.33 | quantum yield ([1]; PBS): 0.01 | molecular brightness ([1]; highest observed): 79,664 cm^−1 M^−1 | tissue/organ signals [2]: high background signals; also recorded: higher background tissue uptake
